# pEC50, pIC50: −log10 of the molar value. Read-outs that look alike come from different tables or passages of the source.
# Key:
# [1] = system: Capan-1 cells (K-Ras G12V); assay: CellTiter-Glo cell viability, Capan-1; type: cell-based, human; settings: Homo sapiens, CAPAN-1, 120 h, read-out: Capan-1 Cell Viability IC50
# Method in brief: (§1)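 Endpoint: CellTiter-Glo luminescence on day 5, following ~30 min at room temperature. Data as (sample/mean DMSO)×100, four-parameter logistic fit.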
# [2] = target: K-Ras G12C(GMP-PNP) binding to BRAF RBD (Homo sapiens (Human), UniProt P01116+P62937, G12C); assay: Disruption of BRAF RBD interaction with K-Ras (FRET / MOA assay), K-Ras G12C; type: biochemical; settings: read-out: KRAS G12C FRET IC50
# Method in brief: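 TR-FRET readout: after 3 h compound incubation at 25 °C, anti-His Eu and anti-GST allophycocyanin (10 and 50 nM final) added for a further 1.5 h. Dilution series was 10-point, 3-fold, top 30 μM final. Ras–cyclophilin A ternary complex formation blocks the BRAF RBD interaction; IC50 derived from reduced FRET ratio relative to DMSO.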
# [3] = system: NCI-H358 cells (K-Ras G12C); assay: CellTiter-Glo cell viability, NCI-H358; type: cell-based, human; settings: Homo sapiens, NCI-H358, 120 h, read-out: H358 Cell Viability IC50
# Method in brief: as §1
# [4] = system: K-Ras G12C (NCI-H358 cells); assay: Potency assay: pERK in NCI-H358 cells; type: cell-based, human; settings: Homo sapiens, read-out: pERK EC50 (H358 KRAS G12C)
# Method in brief: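 Cells plated the day before were exposed for 4 h at 37° C, 5% CO2 to a 10-point, 3-fold DMSO dilution series (10 mM top stock), in duplicate. Phospho-ERK was read by AlphaLISA SureFire Ultra or by In-Cell Western with DRAQ5 DNA stain, and IC50 came from a 4-parameter sigmoidal fit.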
# Chain of K-Ras G12C(GMP-PNP) binding to BRAF RBD (P01116 other isoform, or with tags, fused parts or gaps G12C): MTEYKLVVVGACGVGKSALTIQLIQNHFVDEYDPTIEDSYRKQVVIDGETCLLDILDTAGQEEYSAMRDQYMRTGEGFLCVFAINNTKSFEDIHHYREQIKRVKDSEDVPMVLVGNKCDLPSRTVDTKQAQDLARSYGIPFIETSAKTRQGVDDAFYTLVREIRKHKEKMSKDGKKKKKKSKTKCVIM
# Chain of K-Ras G12C(GMP-PNP) binding to BRAF RBD (P62937 whole entry): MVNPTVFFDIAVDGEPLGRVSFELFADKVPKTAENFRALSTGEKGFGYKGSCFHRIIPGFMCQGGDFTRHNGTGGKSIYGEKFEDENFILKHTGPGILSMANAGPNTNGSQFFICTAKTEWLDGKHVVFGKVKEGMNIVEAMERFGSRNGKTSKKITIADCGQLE
pIC50 [2],"pIC50 ([3]; K-Ras G12C, 5-day treatment)","pEC50 ([4]; NCI-H358 cells, 4 hours)",SMILES,"pIC50 ([1]; K-Ras G12V, 5-day treatment)",pIC50 [1],pIC50 [3],"pEC50 ([4]; NCI-H358, 4 h)"
7.00 to 8.00,7.00 to 8.00,> 5.30,CCn1c(-c2cccnc2[C@H](C)OC)c2c3cc(ccc31)-c1csc(n1)C[C@H](NC(=O)[C@H](C(C)C)N(C)C(=O)N1CCC[C@H](N(C)C)CC1)C(=O)N1CCC[C@H](N1)C(=O)OCC(C)(C)C2 [Compound A493],6.00 to 7.00,–,–,–
7.00 to 8.00,7.00 to 8.00,> 5.30,CCn1c(-c2cccnc2[C@H](C)OC)c2c3cc(ccc31)-c1csc(n1)C[C@H](NC(=O)[C@H](C(C)C)N(C)C(=O)N1CCN3C(=O)CN(C)C[C@H]3C1)C(=O)N1CCC[C@H](N1)C(=O)OCC(C)(C)C2 [Compound A537],7.00 to 8.00,–,–,–
7.00 to 8.00,7.00 to 8.00,> 5.30,CCn1c(-c2cccnc2[C@H](C)OC)c2c3cc(ccc31)-c1csc(n1)C[C@H](NC(=O)[C@H](C(C)C)N(C)C(=O)N1CC([C@H](C)N(C)C)C1)C(=O)N1CCC[C@H](N1)C(=O)OCC(C)(C)C2 [Compound A538],7.00 to 8.00,–,–,–
7.00 to 8.00,6.00 to 7.00,> 5.30,CCn1c(-c2cccnc2[C@H](C)OC)c2c3cc(ccc31)-c1csc(n1)C[C@H](NC(=O)[C@H](C(C)C)N(C)C(=O)N1CCCC13CN(C)C3)C(=O)N1CCC[C@H](N1)C(=O)OCC(C)(C)C2 [Compound A545],6.00 to 7.00,–,–,–
7.00 to 8.00,7.00 to 8.00,> 5.30,CCn1c(-c2cccnc2[C@H](C)OC)c2c3cc(ccc31)-c1csc(n1)C[C@H](NC(=O)[C@H](C(C)C)N(C)C(=O)N1CCN(C(=O)[C@@H]3CCCN3C)CC1)C(=O)N1CCC[C@H](N1)C(=O)OCC(C)(C)C2 [Compound A596],6.00 to 7.00,–,–,–
7.00 to 8.00,6.00 to 7.00,> 5.30,CCn1c(-c2cccnc2[C@H](C)OC)c2c3cc(ccc31)-c1csc(n1)C[C@H](NC(=O)[C@H](C(C)C)N(C)C(=O)N1CC3(CCN(C)C3)C1)C(=O)N1CCC[C@H](N1)C(=O)OCC(C)(C)C2 [Compound A602],6.00 to 7.00,–,–,–

# The remaining lines, values behind:
SMILES,pIC50 [2],"pIC50 ([3]; K-Ras G12C, 5-day treatment)","pEC50 ([4]; NCI-H358 cells, 4 hours)","pIC50 ([1]; K-Ras G12V, 5-day treatment)",pIC50 [1],pIC50 [3],"pEC50 ([4]; NCI-H358, 4 h)"
CCn1c(-c2cccnc2[C@H](C)OC)c2c3cc(ccc31)-c1csc(n1)C[C@H](NC(=O)[C@H](C(C)C)N(C)C(=O)N(C)C1(C)COC1)C(=O)N1CCC[C@H](N1)C(=O)OCC(C)(C)C2 [Compound A527],> 8.00,7.00 to 8.00,> 5.30,7.00 to 8.00,–,–,–
CCn1c(-c2cccnc2[C@H](C)OC)c2c3cc(ccc31)-c1csc(n1)C[C@H](NC(=O)[C@H](C(C)C)N(C)C(=O)N1CC([C@H](C)COC)C1)C(=O)N1CCC[C@H](N1)C(=O)OCC(C)(C)C2 [Compound A533],7.00 to 8.00,7.00 to 8.00,> 5.30,7.00 to 8.00,–,–,–
CCn1c(-c2cccnc2[C@H](C)OC)c2c3cc(ccc31)-c1cc(O)cc(c1)C[C@H](NC(=O)[C@H](C(C)C)N(C)C(=O)[C@@H]1OCC[C@H]1c1ccccc1)C(=O)N1CCC[C@H](N1)C(=O)OCC(C)(C)C2 [Compound A584],7.00 to 8.00,7.00 to 8.00,> 5.30,6.00 to 7.00,–,–,–
CCn1c(-c2cccnc2[C@H](C)OC)c2c3cc(ccc31)-c1csc(n1)C[C@H](NC(=O)[C@H](C(C)C)N(C)C(=O)N1CC(O)(CN(C)C)C1)C(=O)N1CCC[C@H](N1)C(=O)OCC(C)(C)C2 [Compound A597],7.00 to 8.00,7.00 to 8.00,> 5.30,6.00 to 7.00,–,–,–
"CCn1c(-c2cccnc2[C@H](C)OC)c2c3cc(ccc31)-c1csc(n1)[C@@H](OC)[C@H](NC(=O)[C@H](C(C)C)N(C)C(=O)N(C)C)C(=O)N1CCC[C@H](N1)C(=O)OCC(C)(C)C2 [Compound A598, (2S)—N-((6^3S,3S,4S,Z)-1^1-ethyl-3-methoxy-1^2-(2-((S)-1-methoxyethyl)pyridin-3-yl)-10,10-dimethyl-5,7-dioxo-6^1,6^2,6^3,6^4,6^5,6^6-hexahydro-1^1H-8-oxa-2 (4,2)-thiazola-1 (5,3)-indola-6 (1,3)-pyridazinacycloundecaphane-4-yl)-3-methyl-2-(1,3,3-trimethylureido) butanamide]",7.00 to 8.00,–,–,–,6.00 to 7.00,6.00 to 7.00,> 5.30
